As a reminder, the IC50 is the concentration that inhibits the measured activity by half.

For 20 compounds, IC50 results are on record in US9598423B2 (BRISTOL-MYERS SQUIBB COMPANY, priority 2013, dated 2017).

The target in one assay is CK1ε (Homo sapiens (Human), UniProt P49674). The assay is described as follows: CK1ε kinase assay (Caliper LABCHIP electrophoretic separation of fluoresceinated peptide substrate and product). It is filed as biochemical. To be noted: 200 pM CK1ε, 50 μM ATP, 1.5 μM peptide substrate, 22 hours at room temperature; read-out: CK1ε (IC50). The method, boiled down: (§1)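 Incubated for twenty-two hours at ambient temperature, then quenched with EDTA and analyzed by electrophoretic separation of unphosphorylated and phosphorylated peptide.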

Another assay has as its target CK1δ (Homo sapiens (Human), UniProt P48730). The assay is described as follows: CK1δ kinase assay (Caliper LABCHIP electrophoretic separation of fluoresceinated peptide substrate and product). Type of assay: biochemical. To be noted: 200 pM CK1δ, 50 μM ATP, 1.5 μM peptide substrate, 22 hours at room temperature; read-out: CK1δ (IC50). In short, it runs like this: as §1

SMILES strings stand for the structures.

Chain of CK1δ (P48730 whole entry): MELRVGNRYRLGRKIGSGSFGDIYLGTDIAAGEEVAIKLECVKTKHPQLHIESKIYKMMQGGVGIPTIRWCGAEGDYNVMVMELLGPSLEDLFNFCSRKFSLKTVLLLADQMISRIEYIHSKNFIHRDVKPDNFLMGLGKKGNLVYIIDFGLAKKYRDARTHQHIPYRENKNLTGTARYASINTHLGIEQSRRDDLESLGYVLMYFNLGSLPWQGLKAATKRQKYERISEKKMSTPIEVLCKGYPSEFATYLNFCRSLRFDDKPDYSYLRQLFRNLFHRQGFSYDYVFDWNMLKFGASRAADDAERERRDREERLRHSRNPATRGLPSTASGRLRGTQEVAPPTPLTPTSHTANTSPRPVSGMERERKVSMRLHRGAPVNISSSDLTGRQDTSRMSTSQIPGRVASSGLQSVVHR
Chain of CK1ε (P49674 whole entry): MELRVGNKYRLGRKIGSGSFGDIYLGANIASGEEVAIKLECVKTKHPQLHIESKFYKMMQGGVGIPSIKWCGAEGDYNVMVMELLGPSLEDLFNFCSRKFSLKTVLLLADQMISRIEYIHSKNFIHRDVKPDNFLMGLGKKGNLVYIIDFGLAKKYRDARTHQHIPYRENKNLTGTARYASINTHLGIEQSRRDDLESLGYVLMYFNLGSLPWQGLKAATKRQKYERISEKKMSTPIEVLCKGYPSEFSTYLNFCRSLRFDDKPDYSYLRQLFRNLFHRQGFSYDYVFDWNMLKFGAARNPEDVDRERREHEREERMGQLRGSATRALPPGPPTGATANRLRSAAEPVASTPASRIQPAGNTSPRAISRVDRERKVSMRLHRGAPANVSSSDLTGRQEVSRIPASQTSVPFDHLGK

`N#Cc1cccc(NC(=O)N2CCn3nc(-c4ccc(F)c(Cl)c4)c(C(N)=O)c3C2)c1` [Compound 200, 2-(3-Chloro-4-fluorophenyl)-N^5-(3-cyanophenyl)-6,7-dihydropyrazolo[1,5-a] pyrazine-3,5(4H)-dicarboxamide]: the IC50 at CK1ε and at CK1δ was 0.01 to 10 nM throughout.

As to `N#Cc1ccc(NC(=O)N2Cc3c(C(N)=O)c(-c4ccc(F)c(Cl)c4)nn3[C@H]3COC[C@H]32)cc1` [Compound 347, (5aS,8aR)-2-(3-Chloro-4-fluorophenyl)-N^5-(4-cyanophenyl)-5a,6,8,8a-tetrahydrofuro[3,4-e]pyrazolo[1,5-a]pyrazine-3,5(4H)-dicarboxamide], the IC50 on CK1ε and at CK1δ was 0.01 to 10 nM in each case.

Take `NC(=O)c1c(-c2ccc(F)c(Cl)c2)nn2c1CN(C(=O)Nc1ccc(Cl)c(Cl)c1)CC2` [Compound 182, 2-(3-Chloro-4-fluorophenyl)-N^5-(3,4-dichlorophenyl)-6,7-dihydropyrazolo[1,5-a] pyrazine-3,5(4H)-dicarboxamide]: the IC50 on CK1ε and on CK1δ was 0.01 to 10 nM each time.

As for `COc1ccc(Cl)cc1-c1nn2c(c1C(N)=O)CN(C(=O)Nc1ccc(C#N)cc1)CC2` [Compound 278, 2-(5-Chloro-2-methoxyphenyl)-N^5-(4-cyanophenyl)-6,7-dihydropyrazolo[1,5-a] pyrazine-3,5(4H)-dicarboxamide], the IC50 on CK1ε and on CK1δ was 10 to 100 nM throughout.

Regarding `Cc1cc(-c2nn3c(c2C(N)=O)CN(C(=O)Nc2ccc(C#N)c(C(F)(F)F)c2)CC3)ccc1F` [Compound 245, N^5-(4-Cyano-3-(trifluoromethyl)phenyl)-2-(4-fluoro-3-methylphenyl)-6,7-dihydropyrazolo[1,5-a] pyrazine-3,5(4H)-dicarboxamide], the IC50 on CK1ε and at CK1δ was 0.01 to 10 nM each time.

Turning to `N#Cc1ccc(NC(=O)N2Cc3c(C(N)=O)c(-c4ccc(F)c(Cl)c4)nn3[C@H](C(F)F)C2)cc1F` [Compound A22, (S)-2-(3-Chloro-4-fluorophenyl)-N^5-(4-cyano-3-fluorophenyl)-7-(difluoromethyl)-6,7-dihydropyrazolo[1,5-a]pyrazine-3,5(4H)-dicarboxamide], the IC50 on CK1ε and on CK1δ was 0.01 to 10 nM in each case.

With `N#Cc1ccc(NC(=O)N2CCn3nc(-c4cncc(Cl)c4)c(C(N)=O)c3C2)cc1` [Compound 270, 2-(5-Chloropyridin-3-yl)-N^5-(4-cyanophenyl)-6,7-dihydropyrazolo[1,5-a]pyrazine-3,5(4H)-dicarboxamide], the IC50 at CK1ε and on CK1δ was 0.01 to 10 nM each time.

As for `NC(=O)c1c(-c2ccc(Cl)c(Cl)c2)nn2c1CN(C(=O)Nc1cc(Cl)cc(Cl)c1)CC2` [Compound 206], the IC50 on CK1ε and on CK1δ was 0.01 to 10 nM in each case.

As for `Cc1cc(F)cc(-c2nn3c(c2C(N)=O)CN(C(=O)Nc2ccc(C#N)c(Cl)c2)CC3)c1` [Compound 230, N^5-(3-Chloro-4-cyanophenyl)-2-(3-fluoro-5-methylphenyl)-6,7-dihydropyrazolo[1,5-a] pyrazine-3,5(4H)-dicarboxamide], the 50% inhibitory concentration (IC50) at CK1ε and on CK1δ was 0.01 to 10 nM in each case.

Regarding `CC(C)(O)[C@H]1CN(C(=O)Nc2ccc(C#N)cc2)Cc2c(C(N)=O)c(-c3ccc(Cl)c(Cl)c3)nn21` (single isomer, unassigned) [Compound A35, N^5-(4-Cyanophenyl)-2-(3,4-dichlorophenyl)-7-(2-hydroxypropan-2-yl)-6,7-dihydropyrazolo[1,5-a]pyrazine-3,5(4H)-dicarboxamide], the IC50 on CK1ε and at CK1δ was 0.01 to 10 nM throughout.

In the case of `Cc1cc(NC(=O)N2CCn3nc(-c4cccc(F)c4)c(C(N)=O)c3C2)ccc1C#N` [Compound A55, N^5-(4-Cyano-3-methylphenyl)-2-(3-fluorophenyl)-6,7-dihydropyrazolo[1,5-a]pyrazine-3,5(4H)-dicarboxamide], the IC50 on CK1ε and on CK1δ was 0.01 to 10 nM each time.

On to `NC(=O)c1c(-c2cccc(Cl)c2)nn2c1CN(C(=O)Nc1cc(Cl)cc(Cl)c1)CC2CO` (stereo not shown) [Compound A4, 2-(3-Chlorophenyl)-N^5-(3,5-dichlorophenyl)-7-(hydroxymethyl)-6,7-dihydropyrazolo[1,5-a]pyrazine-3,5(4H)-dicarboxamide], for which the IC50 on CK1ε and on CK1δ was 0.01 to 10 nM throughout.

Regarding `Cc1cc(F)cc(-c2nn3c(c2C(N)=O)CN(C(=O)Nc2ccc4c(c2)OC(F)(F)O4)CC3)c1` [Compound 227, N^5-(2,2-Difluorobenzo[d] [1,3]dioxol-5-yl)-2-(3-fluoro-5-methylphenyl)-6,7-dihydropyrazolo[1,5-a] pyrazine-3,5(4H)-dicarboxamide], the IC50 on CK1ε and on CK1δ was 0.01 to 10 nM in each case.

For the compound `NC(=O)c1c(-c2ccc(F)c(Cl)c2)nn2c1CN(C(=O)Nc1cc(C(F)(F)F)cc(C(F)(F)F)c1)CC2` [Compound 188, N^5-(3,5-Bis(trifluoromethyl)phenyl)-2-(3-chloro-4-fluorophenyl)-6,7-dihydropyrazolo[1,5-a] pyrazine-3,5(4H)-dicarboxamide], the IC50 at CK1ε and at CK1δ was 0.01 to 10 nM each time.

For `CN(C)C(=O)c1cccc(-c2nn3c(c2C(N)=O)CN(C(=O)Nc2ccc(C#N)cc2)CC3)c1` [Compound 283, N^5-(4-Cyanophenyl)-2-(3-(dimethylcarbamoyl)phenyl)-6,7-dihydropyrazolo[1,5-a] pyrazine-3,5(4H)-dicarboxamide], the IC50 at CK1ε and on CK1δ was 100 to 2000 nM in each case.

`CNC(=O)c1c(-c2ccc(F)c(Cl)c2)nn2c1CN(C(=O)Nc1ccc(C#N)cc1)CC2` [Compound A64, 2-(3-Chloro-4-fluorophenyl)-N^5-(4-cyanophenyl)-N3-methyl-6,7-dihydropyrazolo[1,5-a]pyrazine-3,5(4H)-dicarboxamide]: the IC50 at CK1ε and at CK1δ was 100 to 2000 nM in each case.

Turning to `CC(C)(C)NC(=O)N1CCn2nc(-c3cncc(F)c3)c(C(N)=O)c2C1` [Compound 113, N^5-(tert-Butyl)-2-(5-fluoropyridin-3-yl)-6,7-dihydropyrazolo[1,5-a]pyrazine-3,5(4H)-dicarboxamide], the IC50 at CK1ε was in the range of 100 to 2000 nM; at CK1δ it was 10 to 100 nM.

Consider `COc1cccc(NC(=O)N2CCn3nc(-c4cccc(F)c4)c(C(N)=O)c3C2)c1` [Compound 73, 2-(3-Fluorophenyl)-N^5-(3-methoxyphenyl)-6,7-dihydropyrazolo[1,5-a]pyrazine-3,5(4H)-dicarboxamide], for which the IC50 on CK1ε and at CK1δ was 0.01 to 10 nM each time.

As to `NC(=O)c1c(-c2cccc(F)c2)nn2c1CN(C(=O)Nc1ccc(Cl)nc1)CC2` [Compound 85, N^5-(6-Chloropyridin-3-yl)-2-(3-fluorophenyl)-6,7-dihydropyrazolo[1,5-a]pyrazine-3,5(4H)-dicarboxamide], the IC50 on CK1ε and at CK1δ was 0.01 to 10 nM each time.

Consider `CC(C)(C)NC(=O)N1CCn2nc(-c3cncc(Cl)c3)c(C(N)=O)c2C1` [Compound 148, N^5-(tert-Butyl)-2-(5-chloropyridin-3-yl)-6,7-dihydropyrazolo[1,5-a]pyrazine-3,5(4H)-dicarboxamide], for which the IC50 on CK1ε and on CK1δ was 0.01 to 10 nM each time.
